This is an account of results in patent EP4714953A1, “MELANOCORTIN 2-TYPE RECEPTOR ANTAGONIST” (Scohia Pharma, Inc., priority 2023, dated 2024).

Where a name gives a salt, the structure may show the parent alone.

T1 sequence (Q01718 whole entry): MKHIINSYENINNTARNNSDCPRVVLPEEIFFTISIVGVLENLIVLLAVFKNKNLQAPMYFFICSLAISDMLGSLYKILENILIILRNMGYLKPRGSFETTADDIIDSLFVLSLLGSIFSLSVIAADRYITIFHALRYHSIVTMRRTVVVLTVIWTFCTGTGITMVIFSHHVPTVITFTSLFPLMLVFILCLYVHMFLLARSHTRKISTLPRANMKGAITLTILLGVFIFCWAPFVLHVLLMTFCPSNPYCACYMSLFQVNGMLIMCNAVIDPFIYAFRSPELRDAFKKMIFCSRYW
T1 sequence (Q8TCY5 whole entry partner): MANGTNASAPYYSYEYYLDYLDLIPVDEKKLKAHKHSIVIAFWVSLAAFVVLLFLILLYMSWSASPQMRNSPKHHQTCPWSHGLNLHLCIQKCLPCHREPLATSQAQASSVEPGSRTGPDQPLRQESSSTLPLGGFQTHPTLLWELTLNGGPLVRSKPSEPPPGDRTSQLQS

The first experiment has as its target T1, human MC2R (Homo sapiens, UniProt Q01718).
T1 construct: host or cells: GeneBLAzer MC2R-CRE-bla CHO-K1 cells
The experiment is described as follows: Measurement of human MC2R inhibitory activity using intracellular cAMP concentration as an indicator. Type of experiment: cell-based. To be noted: test compound at 1 µM; GeneBLAzer MC2R-CRE-bla CHO-K1 cells; ACTH (Human 1-24) final concentration 3 pM; intracellular cAMP by HTRF. As for the experimental part: Experimental Example 1: Measurement of human MC2R inhibitory activity using intracellular cAMP concentration as an indicator
GeneBLAzer MC2R-CRE-bla CHO-K1 cells (Thermo Fisher Scientific) that had been cryopreserved in advance were thawed and suspended in a medium [Dulbecco's Modified Eagle Medium (Thermo Fisher Scientific) containing fetal bovine serum (10% (v/v), HyClone Laboratories), Non-Essential Amino Acids Solution (1/100 (w/w), Thermo Fisher Scientific), HEPES (25 mM, Thermo Fisher Scientific), Penicillin/Streptomycin (1/100 (w/w), Fujifilm Wako)]. After centrifuging the cell suspension, the supernatant was removed, the cells were suspended in D-PBS(-) (Fujifilm Wako), and the supernatant was removed again after centrifugation. The cells were resuspended in an assay buffer [Hank's Balanced Salt Solution (Thermo Fisher Scientific) containing HEPES pH 7.5 (10 mM, Thermo Fisher Scientific), fatty acid-free bovine serum albumin (0.01% (w/v), Sigma), IBMX (500 µM, Fujifilm Wako)] and added to a 384-well white plate (Greiner) at 1,500 cells/well. Then, the test compound prepared using the assay buffer was added, and after standing for 20 min, an assay buffer containing ACTH (Human 1-24) (Peptide Institute) was added (ACTH final concentration, 3 pM). After standing at room temperature for 30 min, the intracellular cAMP level was measured using cAMP Gs HiRange kit HTRF (PerkinElmer). The inhibition rate (%) of the compound against MC2R was calculated using the following formula. Inhibition rate (%) = […] [formula] • A: cAMP concentration calculated from wells containing 3 pM ACTH (1-24) • B: cAMP concentration calculated from wells without addition of 3 pM ACTH (1-24) • C: cAMP concentration calculated from wells containing 3 pM ACTH (1-24) and test compound at concentration determined in advance
For the compound `CCOc1ncccc1-c1ccc(N2CCN3C(=O)N(c4ccc(Cl)cc4C(F)(F)F)C[C@@H]3C2)c(C(=O)NC2CCNC2)n1` (stereo partly drawn) [Example 24, 3-[(8aS)-2-[4-chloro-2-(trifluoromethyl)phenyl]-3-oxo-5,6,8,8a-tetrahydro-1H-imidazo[1,5-a]pyrazin-7-yl]-6-(2-ethoxypyridin-3-yl)-N-pyrrolidin-3-ylpyridine-2-carboxamide 2hydrochloride], the “MC2R inhibition rate (% of inhibition)” value stood at 100%.

Still in this experiment, the particulars now being: test compound at 1 µM; GeneBLAzer MC2R-CRE-bla CHO-K1 cells; ACTH (Human 1-24) final concentration 3 pM; intracellular cAMP by HTRF; read-out: MC2R inhibition rate (% of inhibition).
`CCOc1ncccc1-c1ccc(N2C[C@H]3CN(c4ccc(C(F)(F)F)cc4C#N)C(=O)N3C[C@H]2CC)c(C(=O)N[C@H]2CNC(=O)C2)n1` [Example 56, 3-[(6R,8aS)-2-[2-cyano-4-(trifluoromethyl)phenyl]-6-ethyl-3-oxo-5,6,8,8a-tetrahydro-1H-imidazo[1,5-a]pyrazin-7-yl]-6-(2-ethoxypyridin-3-yl)-N-[(3R)-5-oxopyrrolidin-3-yl]pyridine-2-carboxamide]: the inhibition at 1 µM came to 100%. Same read-out and setting: the result for `CCOc1ncccc1-c1ccc(N2C[C@H]3CN(c4ccc(Cl)cc4C#N)C(=O)N3C[C@H]2CC)c(C(=O)N[C@H]2CNC(=O)C2)n1` [Example 53, 3-[(6R,8aS)-2-(4-chloro-2-cyanophenyl)-6-ethyl-3-oxo-5,6,8,8a-tetrahydro-1H-imidazo[1,5-a]pyrazin-7-yl]-6-(2-ethoxypyridin-3-yl)-N-[(3R)-5-oxopyrrolidin-3-yl]pyridine-2-carboxamide] reads 100%; that for `CCOc1ncccc1-c1ccc(N2C[C@H]3CN(c4ccc(Cl)cc4C(F)(F)F)C(=O)N3C[C@H]2CC)c(C(=O)N[C@@H]2CNC(=O)C2)n1` [Example 39, 3-[(6R,8aS)-2-[4-chloro-2-(trifluoromethyl)phenyl]-6-ethyl-3-oxo-5,6,8,8a-tetrahydro-1H-imidazo[1,5-a]pyrazin-7-yl]-6-(2-ethoxypyridin-3-yl)-N-[(3S)-5-oxopyrrolidin-3-yl]pyridine-2-carboxamide], 100%; that for `CCOc1ncccc1-c1ccc(N2C[C@H]3CN(c4ccc(Cl)cc4C(F)(F)F)C(=O)N3C[C@H]2CC)c(C(=O)NCCNC(C)=O)n1` [Example 36, N-(2-acetamidoethyl)-3-[(6R,8aS)-2-[4-chloro-2-(trifluoromethyl)phenyl]-6-ethyl-3-oxo-5,6,8,8a-tetrahydro-1H-imidazo[1,5-a]pyrazin-7-yl]-6-(2-ethoxypyridin-3-yl)pyridine-2-carboxamide], 100%. Turning to `CCOc1ncccc1-c1ccc(N2C[C@H]3CN(c4ccc(C(F)(F)F)cc4C#N)C(=O)N3C[C@H]2CC)c(C(=O)N[C@@H]2CC(=O)N(C)C2)n1` [Example 57, 3-[(6R,8aS)-2-[2-cyano-4-(trifluoromethyl)phenyl]-6-ethyl-3-oxo-5,6,8,8a-tetrahydro-1H-imidazo[1,5-a]pyrazin-7-yl]-6-(2-ethoxypyridin-3-yl)-N-[(3R)-1-methyl-5-oxopyrrolidin-3-yl]pyridine-2-carboxamide], the inhibition at 1 µM is 100%. For `CCOc1ncccc1-c1ccc(N2CCN3C(=O)N(c4ccc(Cl)cc4C(F)(F)F)CC3C2)c(C(N)=O)n1` (stereo not drawn) [Example 2, 3-[2-[4-chloro-2-(trifluoromethyl)phenyl]-3-oxo-5,6,8,8a-tetrahydro-1H-imidazo[1,5-a]pyrazin-7-yl]-6-(2-ethoxypyridin-3-yl)pyridine-2-carboxamide], the inhibition at 1 µM was 99%. With `CCOc1ncccc1-c1ccc(N2C[C@H]3CN(c4ccc(Cl)cc4C(F)(F)F)C(=O)N3C[C@H]2CC)c(C(N)=O)n1` [Example 27, 3-[(6R,8aS)-2-[4-chloro-2-(trifluoromethyl)phenyl]-6-ethyl-3-oxo-5,6,8,8a-tetrahydro-1H-imidazo[1,5-a]pyrazin-7-yl]-6-(2-ethoxypyridin-3-yl)pyridine-2-carboxamide], the inhibition at 1 µM is 100%. Same read-out and setting: the result for `CCOc1ncccc1-c1ccc(N2C[C@H]3CN(c4ccc(Cl)cc4C(F)(F)F)C(=O)N3C[C@H]2CC)c(C(=O)N[C@H]2CCNC2=O)n1` [Example 48, 3-[(6R,8aS)-2-[4-chloro-2-(trifluoromethyl)phenyl]-6-ethyl-3-oxo-5,6,8,8a-tetrahydro-1H-imidazo[1,5-a]pyrazin-7-yl]-6-(2-ethoxypyridin-3-yl)-N-[(3S)-2-oxopyrrolidin-3-yl]pyridine-2-carboxamide] reads 100%.

Take `COc1ncccc1-c1ccc(N2C[C@H]3CN(c4ccc(Cl)cc4C(F)(F)F)C(=O)N3C[C@H]2C)c(C(=O)N[C@@H]2CC(=O)N(C)C2)n1` [Example 61, 3-[(6R,8aS)-2-[4-chloro-2-(trifluoromethyl)phenyl]-6-methyl-3-oxo-5,6,8,8a-tetrahydro-1H-imidazo[1,5-a]pyrazin-7-yl]-6-(2-methoxy-3-pyridinyl)-N-[(3R)-1-methyl-5-oxopyrrolidin-3-yl]pyridine-2-carboxamide]: the inhibition at 1 µM amounted to 97%. On to `CCOc1ncccc1-c1ccc(N2C[C@H]3CN(c4ccc(Cl)cc4C#N)C(=O)N3C[C@H]2CC)c(C(=O)N[C@@H]2CC(=O)N(C)C2)n1` [Example 54, 3-[(6R,8aS)-2-(4-chloro-2-cyanophenyl)-6-ethyl-3-oxo-5,6,8,8a-tetrahydro-1H-imidazo[1,5-a]pyrazin-7-yl]-6-(2-ethoxypyridin-3-yl)-N-[(3R)-1-methyl-5-oxopyrrolidin-3-yl]pyridine-2-carboxamide], for which the inhibition at 1 µM was found to be 100%. On the same count and under the same terms, the result for `CCOc1ncccc1-c1ccc(N2CCN3C(=O)N(c4ccc(Cl)cc4C(F)(F)F)C[C@@H]3C2)c(C(=O)NCCc2ccccn2)n1` [Example 19, 3-[(8aS)-2-[4-chloro-2-(trifluoromethyl)phenyl]-3-oxo-5,6,8,8a-tetrahydro-1H-imidazo[1,5-a]pyrazin-7-yl]-6-(2-ethoxypyridin-3-yl)-N-(2-pyridin-2-ylethyl)pyridine-2-carboxamide] reads 100%; that for `CCOc1ncccc1-c1ccc(N2CCN3C(=O)N(c4ccc(Cl)cc4C(F)(F)F)C[C@@H]3C2)c(C(=O)NCCCc2ccccn2)n1` [Example 14, 3-[(8aS)-2-[4-chloro-2-(trifluoromethyl)phenyl]-3-oxo-5,6,8,8a-tetrahydro-1H-imidazo[1,5-a]pyrazin-7-yl]-6-(2-ethoxypyridin-3-yl)-N-(3-pyridin-2-ylpropyl)pyridine-2-carboxamide], 100%; that for `CCOc1ncccc1-c1ccc(N2CCN3C(=O)N(c4ccc(Cl)cc4C(F)(F)F)C[C@@H]3C2)c(C(=O)NCCOC)n1` [Example 12, 3-[(8aS)-2-[4-chloro-2-(trifluoromethyl)phenyl]-3-oxo-5,6,8,8a-tetrahydro-1H-imidazo[1,5-a]pyrazin-7-yl]-6-(2-ethoxypyridin-3-yl)-N-(2-methoxyethyl)pyridine-2-carboxamide], 100%. For the compound `CCOc1ncccc1-c1ccc(N2C[C@H]3CN(c4ccc(Cl)cc4C(F)(F)F)C(=O)N3C[C@H]2CC)c(C=O)n1` [Example 10, 3-[(6R,8aS)-2-[4-chloro-2-(trifluoromethyl)phenyl]-6-ethyl-3-oxo-5,6,8,8a-tetrahydro-1H-imidazo[1,5-a]pyrazin-7-yl]-6-(2-ethoxypyridin-3-yl)pyridine-2-carbaldehyde], the inhibition at 1 µM is 100%. As for `CCOc1ncccc1-c1ccc(N2CCN3C(=O)N(c4ccc(Cl)cc4C(F)(F)F)C[C@@H]3C2)c(C(=O)NCCC2CCN(C(=O)OC(C)(C)C)CC2)n1` [Example 21, tert-butyl 4-[2-[[3-[(8aS)-2-[4-chloro-2-(trifluoromethyl)phenyl]-3-oxo-5,6,8,8a-tetrahydro-1H-imidazo[1,5-a]pyrazin-7-yl]-6-(2-ethoxypyridin-3-yl)pyridine-2-carbonyl]amino]ethyl]piperidine-1-carboxylate], the inhibition at 1 µM was found to be 82%. On the same count and under the same terms, the value for `CCOc1ncccc1-c1ccc(N2CCN3C(=O)N(c4ccc(Cl)cc4C(F)(F)F)C[C@@H]3C2)c(C(=O)NC2CCNC2)n1` (stereo partly drawn) [Example 28, 3-[(8aS)-2-[4-chloro-2-(trifluoromethyl)phenyl]-3-oxo-5,6,8,8a-tetrahydro-1H-imidazo[1,5-a]pyrazin-7-yl]-6-(2-ethoxypyridin-3-yl)-N-pyrrolidin-3-ylpyridine-2-carboxamide] was 100%.

Consider `CCOc1ncccc1-c1ccc(N2CCN3C(=O)N(C4(C(F)(F)F)CCCC4)CC3C2)c(C(N)=O)n1` (stereo not drawn) [Example 3, 6-(2-ethoxypyridin-3-yl)-3-[3-oxo-2-[1-(trifluoromethyl)cyclopentyl]-5,6,8,8a-tetrahydro-1H-imidazo[1,5-a]pyrazin-7-yl]pyridine-2-carboxamide], for which the inhibition at 1 µM was 81%.

Usually inhibition stands for the percentage by which the read-out fell short of the control.
